Assay results reported in ChEMBL document CHEMBL1201862, “PubChem BioAssay data set” (2004).
Activity calls are given as the source filed them.

Key:
[1] = Trypanosoma cruzi growth suppression in host cells – NIH3T3 host cells, beta-gal luminescence, confirmation (AID 2044); type: functional, cell-based;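 also: intracellular parasites grown in NIH/3T3 mouse fibroblasts as host cells; luminescent beta-galactosidase reporter signal from transgenic T. cruzi replicating inside host cells; inhibitors lower the luminescence signal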
[2] = NIH3T3 cell viability loss – ATP luminescence, mouse fibroblasts, counter-screen, dose response (AID 2010); type: functional, cell-based;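 also: cells exposed to compound for about 90 hours before reading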
Cytochrome P450 3A4 = Cytochrome P450 3A4 (Homo sapiens, UniProt P08684); settings: Potency;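 also: confirmatory qHTS run detecting inhibitors and substrates of CYP3A4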
[3] = target: Voltage-gated inwardly rectifying potassium channel KCNH2 (Homo sapiens, UniProt Q12809); settings: Potency;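 also: confirmatory quantitative high-throughput screen measuring inhibition of hERG channel activity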
[4] = target: T1, Voltage-gated N-type calcium channel alpha-1B subunit/Amyloid beta A4 precursor protein-binding family A member 1 (Homo sapiens, UniProt Q00975+Q02410); type: protein assay
[5] = target: T1, Voltage-gated N-type calcium channel alpha-1B subunit/Amyloid beta A4 precursor protein-binding family A member 1; type: protein assay; remark: listed apart in the source
[6] = target: T2, Short transient receptor potential channel 4 (Mus musculus, UniProt Q9QUQ5); experiment: calcium entry via TRPC4 opening agents – cell-based, HEK293 TRPC4/mu-opioid, Fluo-4 calcium, dose response (AID 434937); type: functional
T2 sequence (Q9QUQ5 whole entry): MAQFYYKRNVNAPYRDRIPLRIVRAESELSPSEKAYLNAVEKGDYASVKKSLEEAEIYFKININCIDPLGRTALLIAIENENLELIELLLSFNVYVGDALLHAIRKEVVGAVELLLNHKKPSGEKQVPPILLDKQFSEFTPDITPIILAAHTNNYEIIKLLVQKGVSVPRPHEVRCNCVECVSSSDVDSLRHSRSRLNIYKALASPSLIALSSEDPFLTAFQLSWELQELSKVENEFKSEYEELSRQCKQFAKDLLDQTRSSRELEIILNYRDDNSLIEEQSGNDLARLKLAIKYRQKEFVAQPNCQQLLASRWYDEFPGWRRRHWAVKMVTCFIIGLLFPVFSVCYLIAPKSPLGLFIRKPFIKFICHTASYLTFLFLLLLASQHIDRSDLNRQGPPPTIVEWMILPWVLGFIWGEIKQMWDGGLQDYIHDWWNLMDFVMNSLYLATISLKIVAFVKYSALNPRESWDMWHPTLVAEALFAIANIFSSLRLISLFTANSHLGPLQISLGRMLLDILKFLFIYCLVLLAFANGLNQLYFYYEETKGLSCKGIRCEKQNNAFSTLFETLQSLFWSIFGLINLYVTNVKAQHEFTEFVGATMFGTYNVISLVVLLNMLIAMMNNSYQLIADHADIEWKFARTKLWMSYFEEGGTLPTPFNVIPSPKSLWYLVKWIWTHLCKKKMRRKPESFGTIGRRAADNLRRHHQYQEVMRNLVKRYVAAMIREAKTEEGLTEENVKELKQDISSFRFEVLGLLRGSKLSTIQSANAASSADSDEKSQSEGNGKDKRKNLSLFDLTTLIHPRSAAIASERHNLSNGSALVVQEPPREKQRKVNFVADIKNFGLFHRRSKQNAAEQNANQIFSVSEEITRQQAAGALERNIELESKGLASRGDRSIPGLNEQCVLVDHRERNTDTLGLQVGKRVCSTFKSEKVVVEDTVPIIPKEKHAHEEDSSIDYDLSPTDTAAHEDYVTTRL

[7] = target: Heat shock protein HSP 90-alpha (Homo sapiens, UniProt P07900); type: functional, organism-based
Nonstructural protein 1 = Nonstructural protein 1 (Influenza A virus, UniProt Q194T2); type: functional, Influenza A virus (A/California/07/2009(H1N1))
[8] = target: T3, Histone-lysine N-methyltransferase NSD2 (Homo sapiens, UniProt O96028); type: biochemical
T3 sequence (O96028 whole entry): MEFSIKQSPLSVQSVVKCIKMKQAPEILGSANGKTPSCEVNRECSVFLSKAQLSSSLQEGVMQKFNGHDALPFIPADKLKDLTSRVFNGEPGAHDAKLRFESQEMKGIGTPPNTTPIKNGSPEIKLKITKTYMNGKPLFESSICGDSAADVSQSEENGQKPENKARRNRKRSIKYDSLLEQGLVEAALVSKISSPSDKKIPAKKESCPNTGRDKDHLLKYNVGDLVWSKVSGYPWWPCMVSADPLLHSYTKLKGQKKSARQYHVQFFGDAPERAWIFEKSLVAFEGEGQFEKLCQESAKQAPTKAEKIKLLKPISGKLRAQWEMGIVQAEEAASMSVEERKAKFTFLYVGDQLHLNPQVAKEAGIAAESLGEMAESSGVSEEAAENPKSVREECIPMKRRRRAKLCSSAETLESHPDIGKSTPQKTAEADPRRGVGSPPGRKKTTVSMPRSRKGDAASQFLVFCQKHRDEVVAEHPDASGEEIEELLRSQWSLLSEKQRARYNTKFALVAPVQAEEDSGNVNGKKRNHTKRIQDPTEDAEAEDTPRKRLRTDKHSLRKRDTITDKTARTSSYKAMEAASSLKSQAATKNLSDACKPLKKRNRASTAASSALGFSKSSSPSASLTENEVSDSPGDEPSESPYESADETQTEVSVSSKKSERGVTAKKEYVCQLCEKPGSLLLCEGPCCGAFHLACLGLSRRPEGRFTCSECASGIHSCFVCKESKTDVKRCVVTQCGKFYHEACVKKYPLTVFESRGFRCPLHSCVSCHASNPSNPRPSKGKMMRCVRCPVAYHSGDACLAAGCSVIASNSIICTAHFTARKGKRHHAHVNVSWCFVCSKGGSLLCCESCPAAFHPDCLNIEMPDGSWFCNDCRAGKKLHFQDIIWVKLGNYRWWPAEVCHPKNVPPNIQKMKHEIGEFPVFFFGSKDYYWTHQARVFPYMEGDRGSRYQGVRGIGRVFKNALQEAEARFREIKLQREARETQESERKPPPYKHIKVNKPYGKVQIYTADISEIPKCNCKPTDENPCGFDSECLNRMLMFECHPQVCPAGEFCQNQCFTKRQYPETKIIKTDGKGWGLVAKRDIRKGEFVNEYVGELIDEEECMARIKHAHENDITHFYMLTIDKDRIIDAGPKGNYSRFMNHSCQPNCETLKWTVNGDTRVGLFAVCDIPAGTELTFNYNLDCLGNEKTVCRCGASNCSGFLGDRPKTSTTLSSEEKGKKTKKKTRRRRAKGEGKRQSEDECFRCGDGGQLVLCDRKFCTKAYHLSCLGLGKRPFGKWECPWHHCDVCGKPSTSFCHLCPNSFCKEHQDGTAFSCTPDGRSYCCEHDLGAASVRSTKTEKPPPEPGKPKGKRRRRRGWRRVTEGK

[9] = A cytotoxicity screen of small molecule inhibitors of the PhoP region in Salmonella typhi identified in the primary screen. [Related pubchem assays: 1850, 1864, 1985 ]; type: functional
HEK293 [10] = experiment: inhibition of NOD1-driven NF-kB reporter – cell-based, luminescence, uHTS, primary screen (AID 1578); type: functional; settings: Homo sapiens
HEK293 [11] = experiment: cells; type: functional, cell-based; settings: Homo sapiens
HEK293 [12] = experiment: cells; type: functional, cell-based; settings: Homo sapiens; remark: listed apart in the source
HEK293 [13] = experiment: NOD2 signaling inhibitors in MDP-stimulated cells, cell-based, uHTS, luminescence (AID 2001); type: functional; settings: Homo sapiens
[14] = target: Beta-2 adrenergic receptor (Homo sapiens, UniProt P07550); experiment: ADRB2 activation measured by internalization – cell-based, FAP fluorogen, flow cytometry, cherry pick 1, dose response (AID 588763); type: functional
Paired box protein Pax-8 = Paired box protein Pax-8 (Homo sapiens, UniProt Q06710); experiment: PAX8 transcriptional activity inhibition in RMG-I – RMG-I cells, luciferase, cherry-pick, dose response (AID 687027); type: functional, cell-based;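 also: luciferase reporter driven by Pax8 target thyroperoxidase promoter measured by SteadyGlo luminescence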
[15] = OVCAR-3 cell viability loss – plate reader, dry powder samples, PAX8 inhibitor project, dose response (AID 743044); type: functional, cell-based
[16] = IGROV1 cell killing – plate reader, dry powder samples, PAX8 inhibitor project, dose response (AID 743043); type: functional, cell-based; settings: IGROV-1
[17] = OVCAR8 cell viability loss – plate reader, dry powder samples, PAX8 project, dose response (AID 743197); type: functional, cell-based; settings: OVCAR-8
[18] = target: Dual specificity tyrosine-phosphorylation-regulated kinase 1A (Rattus norvegicus, UniProt Q63470); type: biochemical, Homo sapiens
[19] = NIH-3T3 fibroblast cytotoxicity, dose response, cytotoxicity control, cell-based, fluorescence, Alamar Blue, secondary assay (AID 2327); type: functional;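 also: NIH-3T3 mouse fibroblasts cultured with fluconazole at 8 µg/mL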
[20] = fluconazole-exposed Candida albicans growth modulators – fluorescence, retest, confirmation (AID 2467); type: functional, cell-based
[21] = Luminescence Cell-Based Dose Retest to Confirm Inhibitors of Cancer Stem Cells. [Related pubchem assays (depositor defined):AID2717, AID2721]; type: functional; settings: Homo sapiens
[22] = reduction of Shn3 3'UTR-driven luciferase in osteoblasts – cell-based, Clone20 osteoblasts, firefly luciferase, cherry-picked, dose response (AID 624132); type: functional;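 also: firefly luciferase luminescence from reporter carrying the Shn3 3'UTR in osteoblasts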
[23] = loss of viability in HepG2 cells – cell-based, CellTiter-Glo, cherry-picked, cytotoxicity control for Shn3 inhibitor project, dose response (AID 624134); type: functional
[24] = non-specific 3'UTR reporter inhibition in Clone20-Shn3RL – cell-based, Renilla luciferase, cherry-picked, counter-screen for Shn3 inhibitor project, dose response (AID 624133); type: functional

Sequence of Cytochrome P450 3A4 (P08684 whole entry): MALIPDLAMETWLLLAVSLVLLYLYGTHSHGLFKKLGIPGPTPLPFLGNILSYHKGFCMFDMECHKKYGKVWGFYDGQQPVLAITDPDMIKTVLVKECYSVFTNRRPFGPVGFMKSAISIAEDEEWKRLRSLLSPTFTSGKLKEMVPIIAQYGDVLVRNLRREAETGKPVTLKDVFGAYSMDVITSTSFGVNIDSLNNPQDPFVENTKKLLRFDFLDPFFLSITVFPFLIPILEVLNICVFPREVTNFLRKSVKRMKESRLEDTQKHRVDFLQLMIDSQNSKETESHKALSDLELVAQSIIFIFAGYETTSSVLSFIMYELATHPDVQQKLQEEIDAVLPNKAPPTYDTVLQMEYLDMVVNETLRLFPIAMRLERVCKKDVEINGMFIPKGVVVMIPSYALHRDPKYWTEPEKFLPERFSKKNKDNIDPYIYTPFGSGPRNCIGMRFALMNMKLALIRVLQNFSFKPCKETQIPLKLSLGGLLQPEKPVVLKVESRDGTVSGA
Sequence of Voltage-gated inwardly rectifying potassium channel KCNH2 (Q12809 whole entry): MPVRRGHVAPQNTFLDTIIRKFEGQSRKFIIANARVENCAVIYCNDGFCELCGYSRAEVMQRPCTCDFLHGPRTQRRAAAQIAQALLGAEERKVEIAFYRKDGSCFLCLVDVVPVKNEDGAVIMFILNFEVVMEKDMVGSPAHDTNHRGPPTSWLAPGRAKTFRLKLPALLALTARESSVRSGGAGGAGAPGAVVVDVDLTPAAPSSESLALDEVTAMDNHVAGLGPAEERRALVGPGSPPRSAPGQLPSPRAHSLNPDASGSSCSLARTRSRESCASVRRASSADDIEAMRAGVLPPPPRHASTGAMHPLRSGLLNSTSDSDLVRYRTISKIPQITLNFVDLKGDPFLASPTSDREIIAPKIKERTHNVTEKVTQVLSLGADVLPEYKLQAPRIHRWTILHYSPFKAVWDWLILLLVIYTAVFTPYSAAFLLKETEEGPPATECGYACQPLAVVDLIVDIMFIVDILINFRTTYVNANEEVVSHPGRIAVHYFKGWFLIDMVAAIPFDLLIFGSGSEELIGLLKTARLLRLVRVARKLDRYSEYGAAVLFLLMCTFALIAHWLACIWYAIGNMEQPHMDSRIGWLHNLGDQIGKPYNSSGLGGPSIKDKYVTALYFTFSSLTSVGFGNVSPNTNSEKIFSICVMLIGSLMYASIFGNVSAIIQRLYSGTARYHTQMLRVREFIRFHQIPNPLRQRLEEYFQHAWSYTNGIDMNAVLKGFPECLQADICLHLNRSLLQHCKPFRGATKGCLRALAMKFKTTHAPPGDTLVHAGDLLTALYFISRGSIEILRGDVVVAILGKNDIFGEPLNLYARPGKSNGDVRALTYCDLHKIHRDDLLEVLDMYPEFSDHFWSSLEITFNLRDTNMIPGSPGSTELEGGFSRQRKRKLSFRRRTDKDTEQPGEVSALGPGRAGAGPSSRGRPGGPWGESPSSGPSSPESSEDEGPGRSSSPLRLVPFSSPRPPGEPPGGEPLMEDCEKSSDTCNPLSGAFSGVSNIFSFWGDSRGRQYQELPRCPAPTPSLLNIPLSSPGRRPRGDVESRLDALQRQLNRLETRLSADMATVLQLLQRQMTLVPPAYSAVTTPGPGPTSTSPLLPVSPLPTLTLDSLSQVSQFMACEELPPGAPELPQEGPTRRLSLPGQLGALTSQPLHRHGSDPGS
Sequence of Paired box protein Pax-8 (Q06710 whole entry): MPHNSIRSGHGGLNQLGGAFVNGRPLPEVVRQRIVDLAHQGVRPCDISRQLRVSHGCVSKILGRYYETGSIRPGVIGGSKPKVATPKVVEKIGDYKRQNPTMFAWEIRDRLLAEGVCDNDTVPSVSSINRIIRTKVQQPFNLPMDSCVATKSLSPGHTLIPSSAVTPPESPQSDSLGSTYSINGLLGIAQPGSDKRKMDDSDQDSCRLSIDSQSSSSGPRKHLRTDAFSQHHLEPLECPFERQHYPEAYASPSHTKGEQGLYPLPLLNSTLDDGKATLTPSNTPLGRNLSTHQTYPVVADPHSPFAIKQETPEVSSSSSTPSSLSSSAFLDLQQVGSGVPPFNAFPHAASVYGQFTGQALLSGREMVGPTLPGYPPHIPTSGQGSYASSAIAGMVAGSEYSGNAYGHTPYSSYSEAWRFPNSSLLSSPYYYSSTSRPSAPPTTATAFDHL
Sequence of Nonstructural protein 1 (Q194T2 whole entry): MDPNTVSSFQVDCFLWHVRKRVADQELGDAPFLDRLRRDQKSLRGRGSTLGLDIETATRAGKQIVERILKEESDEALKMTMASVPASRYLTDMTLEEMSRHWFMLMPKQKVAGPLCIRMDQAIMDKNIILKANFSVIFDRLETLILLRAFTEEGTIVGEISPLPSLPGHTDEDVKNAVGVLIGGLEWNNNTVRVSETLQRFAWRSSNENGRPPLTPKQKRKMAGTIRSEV
Sequence of Beta-2 adrenergic receptor (P07550 whole entry): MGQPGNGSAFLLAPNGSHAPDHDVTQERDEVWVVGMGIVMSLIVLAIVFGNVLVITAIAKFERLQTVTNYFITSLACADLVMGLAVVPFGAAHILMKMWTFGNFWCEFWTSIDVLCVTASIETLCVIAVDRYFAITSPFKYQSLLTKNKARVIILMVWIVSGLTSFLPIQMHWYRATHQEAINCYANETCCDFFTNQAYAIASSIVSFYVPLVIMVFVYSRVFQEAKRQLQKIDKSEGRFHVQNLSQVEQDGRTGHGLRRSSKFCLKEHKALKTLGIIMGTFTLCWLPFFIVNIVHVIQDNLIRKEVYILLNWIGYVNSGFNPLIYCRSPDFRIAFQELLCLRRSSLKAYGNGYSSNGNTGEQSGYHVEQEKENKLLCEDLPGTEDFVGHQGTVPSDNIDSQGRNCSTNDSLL

SMILES: CCOc1cc(CN2CCCC(CNC(=O)c3ccc(F)cc3)C2)ccc1OC (stereo unspecified)
- EC50 [1]: < 100 nM (active)
- EC50 [2]: > 30 µM (not active)
- EC50 (cells): 206 nM (active)

SMILES: Cc1cc([N+](=O)[O-])ccc1N
- AC50 (Cytochrome P450 3A4): 39.8 µM (inconclusive)
- AC50 [3]: 17.8 µM (inconclusive)

SMILES: Cc1ccc(-c2cc(C(=O)N3CC(C)CC(C)C3)c3ccccc3n2)o1 (stereo unspecified)
- IC50 [4]: 11.3 µM (active)
- IC50 [5]: 5.42 µM (active)

SMILES: Cc1ccc(OCC(=O)NNC(=S)NC(=O)C(C)(C)C)c(Br)c1
- EC50 [6]: 4.73 µM (active)
- AC50 [7]: 4.75 µM (active)

SMILES: COC(=O)C1CCN(C2=C(NS(=O)(=O)c3ccc(Cl)cc3)C(=O)c3ccccc3C2=O)CC1
- IC50 (Nonstructural protein 1): 27.4 µM (active)
- AC50 [8]: 13.1 µM (active)

SMILES: Cc1ccccc1Cn1c(=O)n(CCCC(=O)NCc2ccco2)c(=O)c2ccccc21
- EC50 [9]: > 50 µM (active)

SMILES: CC(=O)Nc1ccc(C(=O)CCl)cc1
- AC50 [3]: 28.2 µM (inconclusive)

SMILES: O=C(Nc1cccc(F)c1)NC1CCCCC1
- EC50 [9]: > 50 µM (active)

SMILES: CC(C)c1ccc(S(=O)(=O)c2cc3cc(Br)ccc3oc2=O)cc1
- EC50 (HEK293 [10]): > 20 µM (inactive)
- IC50 (HEK293 [11]): 3.29 µM (active)
- IC50 (HEK293 [12]): 10.5 µM (active)
- IC50 (HEK293 [13]): 3.73 µM (active)

SMILES: Cc1ccc(NC(=O)CC2=NC(=O)C(CC(=O)Nc3ccccc3F)S2)cc1 (stereo unspecified)
- AC50 [8]: 19.1 µM (active)

SMILES: CCCCCOC(=O)c1ccccc1C(=O)OCCCCC
- AC50 (Cytochrome P450 3A4): 12.6 µM (inconclusive)
- AC50 [3]: 39.8 µM (inconclusive)

SMILES: COc1ccccc1CNC(=O)Cn1c(=O)oc2cc(S(=O)(=O)N3CCCC3)ccc21
- EC50 [9]: > 50 µM (active)

SMILES: COc1ccc(C2CC(=O)N(CCCN(C)CCc3ccc(OC)c(OC)c3)C2)cc1 (stereo unspecified)
- EC50 [1]: < 100 nM (active)
- EC50 [2]: > 60 µM (not active)
- EC50 (cells): 20 nM (active)

SMILES: Cc1c(CN(C)C)c2c(n1Cc1ccccc1)C(=O)c1ccccc1-2
- AC50 [8]: 8.45 µM (active)

SMILES: COC(=O)C1=C(c2cccc(OCc3ccccc3)c2)C[C@@H]2CC[C@H]1N2C(=O)NCc1cccc(F)c1
- EC50 [14]: 4.8 µM (active)

SMILES: C[C@@H]1CN([C@H](C)CO)C(=O)c2cc(NS(=O)(=O)c3ccc(F)cc3)ccc2O[C@@H](C)CCCCO[C@H]1CN(C)Cc1ccc(C(F)(F)F)cc1
- AC50 (Paired box protein Pax-8): 5.54 µM (active)
- AC50 [15]: 7.81 µM (active)
- AC50 [16]: 55.1 µM (active)
- AC50 [17]: 33.9 µM (active)

SMILES: CC(C)CC#Cc1ccc2c(c1)O[C@@H](CN(C)S(=O)(=O)c1ccc(F)cc1)[C@@H](C)CN([C@@H](C)CO)S2(=O)=O
- AC50 (Paired box protein Pax-8): 12.9 µM (active)
- AC50 [15]: 25.9 µM (active)
- AC50 [16]: 51.5 µM (active)
- AC50 [17]: > 70 µM (inactive)

SMILES: C[C@H]1CCCCO[C@H](CN(C)C(=O)Nc2cccc3ccccc23)[C@@H](C)CN([C@@H](C)CO)C(=O)c2cc(NS(=O)(=O)c3ccc(F)cc3)ccc2O1
- AC50 (Paired box protein Pax-8): 5.88 µM (active)
- AC50 [16]: 33.8 µM (active)
- AC50 [17]: > 70 µM (inactive)

SMILES: COc1ccc2cc(C(=O)N/N=C/c3cc(OC)c(OC)c(OC)c3)[nH]c2c1
- AC50 [18]: 3.83 µM (active)

SMILES: C/C(CC(C)(C)C1CCCCC1)=N\NC(N)=S
- EC50 [19]: 2.86 µM (inconclusive)
- EC50 [20]: 2.9 µM (active)
- EC50 [1]: < 100 nM (active)
- EC50 (cells): 133 nM (active)

SMILES: CC(C)N(CCC(=O)c1ccc2ccccc2c1)Cc1ccccc1
- AC50 [21]: 5.58 µM (active)
- AC50 [7]: 9.38 µM (active)
- AC50 [22]: 4.22 µM (active)
- AC50 [23]: > 70 µM (inactive)
- AC50 [24]: 17.3 µM (active)

SMILES: COC(=O)c1c(C)[nH]c(C)c1C(=O)c1ccccc1Cc1ccccc1
- AC50 [3]: 35.5 µM (inconclusive)

SMILES: CC1(C)CC23C(=O)CCC(O)C2(C)CCC13 (stereo unspecified) [3-NOR-3-OXOPANASINSAN-6-OL]
- AC50 (Cytochrome P450 3A4): 15.8 µM (inconclusive)

SMILES: CC(C)=CCc1c2c(c(O)c3c(=O)c(O)c(-c4ccccc4)oc13)C=CC(C)(C)O2 [SERICETIN]
- AC50 (Cytochrome P450 3A4): 15.8 µM (inconclusive)
